The test concerns the target T1, mouse melanopsin (Mus musculus, UniProt Q9QXZ9).
T1 construct: the C-terminal amino acid residues (94, 140, 200, 214, 296, and 308 residues); expressed in transfected cells; host or cells: COS-1
Put plainly: GsX GloSensor assay with exogenous Gsα WT. The test is classed as cell-based. As to conditions: 16.7 μM AA92593; COS-1 cells. From the text:
Previous studies of human and mouse melanopsins reported that these melanopsins can activate not only Gq but Gs and Gi ([20], [21], [22]). Thus, we assessed the effect of AA92593 on Gsα WT or Gsα/i11 (with 11 C-terminal sequence of Giα) using the GsX GloSensor assay. In agreement with the promiscuous G protein-coupling of melanopsins, we observed light-dependent increase of GloSensor luminescence in COS-1 cells expressing Gsα or Gsα/i11 with human/mouse melanopsins (Fig. 1, G–J).
For GloSensor assay, opsins, GloSensor assay sensor (coded by pGlo-22F), and NanoBiT-tagged G proteins were transiently expressed in COS-1 cells (kindly provided from Dr David Farrens, Oregon Health and Science University) using PEI as described previously ([24], [52]). […] For GFP-fluorescence microscopy, a 35-mm cell culture dish (IWAKI) was transfected with 2 μg melanopsin-GFP plasmid and 8 μg PEI in 400 μl Opti-mem and 1.2 ml D-MEM. […]
The transfected COS-1 cells were incubated at 37 °C, 5% CO2 for 2 days, and the medium was aspirated and exchanged with 50 μl of HBSS (145 mM NaCl, 10 mM D-glucose, 5 mM KCl, 1 mM MgCl2, 1.7 mM CaCl2, 1.5 mM NaHCO3, 10 mM Hepes, pH 7.4), containing 33.3, 20, 10, 2, 0.2, 0.02, 0.002, or 0 μM AA92593, 0.5% dimetyl sulfoxide (DMSO), and 4% (vol/vol) GloSensor cAMP reagent stock solution. […] Luminescence was measured using GM-2000 or GM-3510 microplate reader (Promega). […]

T1 sequence (Q9QXZ9 1-381 limits assumed): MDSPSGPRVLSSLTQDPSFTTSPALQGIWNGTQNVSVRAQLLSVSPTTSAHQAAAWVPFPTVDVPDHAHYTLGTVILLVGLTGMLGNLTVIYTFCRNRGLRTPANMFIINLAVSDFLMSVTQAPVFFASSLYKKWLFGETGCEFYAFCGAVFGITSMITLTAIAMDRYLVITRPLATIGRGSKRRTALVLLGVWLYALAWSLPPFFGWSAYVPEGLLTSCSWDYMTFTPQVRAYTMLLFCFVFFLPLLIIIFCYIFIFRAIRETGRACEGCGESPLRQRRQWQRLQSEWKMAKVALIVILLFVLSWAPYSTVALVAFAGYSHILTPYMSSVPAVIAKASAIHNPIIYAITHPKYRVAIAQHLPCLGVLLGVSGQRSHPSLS

On to `COc1ccc(S(=O)(=O)N2CCCCC2)cc1C` [AA92593], for which the “effect on melanopsin-induced cAMP responses via exogenous Gsα” value is “can suppress”.

Source of the values: article PMC12051620, “Molecular basis underlying the specificity of an antagonist AA92593 for mammalian melanopsins” (The Journal of Biological Chemistry, 2025).
